Test [1] addresses GDP-bound NRAS wild-type protein (Homo sapiens, UniProt P01111). The experiment in a line: Binding to NRAS by surface plasmon resonance (SPR), KD and KD ratio to KRAS. Conditions: ratio of the KD value with respect to GDP-bound NRAS wild-type protein to the KD value with respect to KRAS. The method in brief: (§1)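 Single-cycle kinetics on GDP-loaded biotin-Avi RAS captured to ~100–300 RU; 75 s ascending injections, 100 µL/min, 30°C. HBS pH 7.4 + 10 mM MgCl2/10 µM GDP/4% DMSO. 1:1 fit, KD.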

For another test, the target named is HRAS wild-type protein (Homo sapiens, UniProt P01112). The experiment in a line: Binding to HRAS by surface plasmon resonance (SPR), KD and KD ratio to KRAS. Conditions: ratio of the KD value with respect to HRAS wild-type protein to the KD value with respect to KRAS. The method in brief:
as §1
In general terms: Surface plasmon resonance follows binding to a sensor surface in real time, without labels.

The test system of test [2] is human lung cancer strain NCI-H441. The format is cell-based. The essentials:
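Proliferation was scored by […] measured after the reagent was added to cultures kept at 37°C in 5% carbon dioxide.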

Molecules are shown by their SMILES.

HRAS wild-type protein, sequence (P01112 whole entry): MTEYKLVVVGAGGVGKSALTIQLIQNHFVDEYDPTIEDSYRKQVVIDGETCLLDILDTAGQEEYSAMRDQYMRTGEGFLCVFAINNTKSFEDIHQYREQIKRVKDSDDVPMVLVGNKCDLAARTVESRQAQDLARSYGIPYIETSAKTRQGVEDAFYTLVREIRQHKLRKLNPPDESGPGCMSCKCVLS
GDP-bound NRAS wild-type protein, sequence (P01111 whole entry): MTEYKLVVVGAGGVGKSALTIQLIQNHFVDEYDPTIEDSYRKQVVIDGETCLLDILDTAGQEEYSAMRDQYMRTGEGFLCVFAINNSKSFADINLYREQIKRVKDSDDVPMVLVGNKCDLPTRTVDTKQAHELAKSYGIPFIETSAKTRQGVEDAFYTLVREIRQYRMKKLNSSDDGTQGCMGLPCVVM

On to `CC[C@H](C)[C@@H]1NC(=O)[C@H](CC)N(C)C(=O)C[C@@H](C(=O)N(C)C)N(CC)C(=O)[C@H](C2CCCC2)N(C)C(=O)C2(CCC2)NC(=O)[C@@H]2CCCCN2C(=O)[C@H](CCc2cc(F)c(C(F)(F)F)c(F)c2)NC(=O)CN(C)C(=O)[C@H](Cc2ccc(C(F)(F)F)cc2)N2CCCC[C@@H](C2=O)N(C)C(=O)CN(C)C1=O` [PP0661], for which, in test [1], the “NRAS /KRAS” value is “C (A compound having a KD ratio of 0.1 or more and less than 3 is denoted as C)”. The “HRAS /KRAS” value on HRAS wild-type protein is “B (a compound having 3 or more and less than 10 is denoted as B)”. This molecule also returned an IC50 in test [2] of 56.6 nM.
On to `CC[C@H](C)[C@@H]1NC(=O)[C@H](CC(C)C)N(C)C(=O)C[C@@H](C(=O)N2CCOCC2)N(C)C(=O)[C@H](C2CCCC2)N(C)C(=O)C2(CCCC2)NC(=O)[C@@H]2[C@@H](O)CCN2C(=O)[C@H](CCc2cc(F)c(C(F)(F)F)c(F)c2)NC(=O)CN(C)C(=O)[C@H](Cc2ccc(C(F)(F)F)cc2)N2CCCCC[C@@H](C2=O)N(C)C(=O)CN(C)C1=O` [PP0662], for which the “NRAS /KRAS” value in test [1] is “B (a compound having 3 or more and less than 10 is denoted as B)”. Further, the “HRAS /KRAS” value at HRAS wild-type protein is “B (a compound having 3 or more and less than 10 is denoted as B)”. Besides, it took 1570 nM to reach half-maximal inhibition in test [2] (IC50).
As to `CCO[C@@H]1C[C@H]2C(=O)NC3(CCC3)C(=O)N(C)[C@@H](C3CCCC3)C(=O)N(C)[C@H](C(=O)N(C)C)CC(=O)N(C)[C@@H](CC)C(=O)N[C@@H]([C@@H](C)CC)C(=O)N(C)CC(=O)N(C)[C@H]3CCCCCN(C3=O)[C@@H](Cc3ccc(C(F)(F)F)cc3)C(=O)N(C)CC(=O)N[C@@H](CCc3cc(F)c(C(F)(F)F)c(F)c3)C(=O)N2C1` [PP0663], the “NRAS /KRAS” value in test [1] was “B (a compound having 3 or more and less than 10 is denoted as B)”. Further, the “HRAS /KRAS” value on HRAS wild-type protein is “B (a compound having 3 or more and less than 10 is denoted as B)”. The molecule further yielded an IC50 in test [2] of 22.7 nM.
On to `C=CC[C@H]1C(=O)N[C@@H]([C@@H](C)CC)C(=O)N(C)CC(=O)N(C)[C@H]2CCCCCN(C2=O)[C@@H](Cc2ccc(C(F)(F)F)cc2)C(=O)N(C)CC(=O)N[C@@H](CCc2cc(F)c(C(F)(F)F)c(F)c2)C(=O)N2C[C@H](OCC)C[C@H]2C(=O)NC2(CCC2)C(=O)N(C)[C@@H](C2CCCC2)C(=O)N(C)[C@H](C(=O)N(C)C)CC(=O)N1C` [PP0665], for which the “NRAS /KRAS” value in test [1] is “B (a compound having 3 or more and less than 10 is denoted as B)”. For the same molecule, the “HRAS /KRAS” value at HRAS wild-type protein is “B (a compound having 3 or more and less than 10 is denoted as B)”. Half-maximal inhibition in test [2] (IC50) was put at 15.6 nM.
Consider `C#CC[C@H]1C(=O)N[C@@H]([C@@H](C)CC)C(=O)N(C)CC(=O)N(C)[C@H]2CCCCCN(C2=O)[C@@H](Cc2ccc(C(F)(F)F)cc2)C(=O)N(C)CC(=O)N[C@@H](CCc2cc(F)c(C(F)(F)F)c(F)c2)C(=O)N2C[C@H](OCC)C[C@H]2C(=O)NC2(CCC2)C(=O)N(C)[C@@H](C2CCCC2)C(=O)N(C)[C@H](C(=O)N(C)C)CC(=O)N1C` [PP0666], for which the “NRAS /KRAS” value in test [1] was “B (a compound having 3 or more and less than 10 is denoted as B)”. Moreover, on HRAS wild-type protein, the “HRAS /KRAS” value was “B (a compound having 3 or more and less than 10 is denoted as B)”. Besides, half-maximal inhibition in test [2] (IC50) was put at 19.1 nM.
As to `CCO[C@@H]1C[C@H]2C(=O)NC3(CCC3)C(=O)N(C)[C@@H](C3CCCC3)C(=O)N(C)[C@H](C(=O)N(C)C)CC(=O)N(C)[C@@H](CC3CC3)C(=O)N[C@@H]([C@@H](C)CC)C(=O)N(C)CC(=O)N(C)[C@H]3CCCCCN(C3=O)[C@@H](Cc3ccc(C(F)(F)F)cc3)C(=O)N(C)CC(=O)N[C@@H](CCc3cc(F)c(C(F)(F)F)c(F)c3)C(=O)N2C1` [PP0667], in test [1], the “NRAS /KRAS” value is “B (a compound having 3 or more and less than 10 is denoted as B)”. Moreover, the “HRAS /KRAS” value at HRAS wild-type protein is “B (a compound having 3 or more and less than 10 is denoted as B)”. Further, in test [2], the IC50 came out at 8.8 nM.
For the molecule `CCO[C@@H]1C[C@H]2C(=O)NC3(CCC3)C(=O)N(C)[C@@H](C3CCCC3)C(=O)N(C)[C@H](C(=O)N(C)C)CC(=O)N(C)[C@@H](CC3CCC3)C(=O)N[C@@H]([C@@H](C)CC)C(=O)N(C)CC(=O)N(C)[C@H]3CCCCCN(C3=O)[C@@H](Cc3ccc(C(F)(F)F)cc3)C(=O)N(C)CC(=O)N[C@@H](CCc3cc(F)c(C(F)(F)F)c(F)c3)C(=O)N2C1` [PP0668], in test [1], the “NRAS /KRAS” value is “B (a compound having 3 or more and less than 10 is denoted as B)”. At HRAS wild-type protein, the “HRAS /KRAS” value was “B (a compound having 3 or more and less than 10 is denoted as B)”. This molecule showed an IC50 in test [2] of 22.7 nM.
As to `CCO[C@@H]1C[C@H]2C(=O)NC3(CCC3)C(=O)N(C)[C@@H](C3CCCC3)C(=O)N(C)[C@H](C(=O)N(C)C)CC(=O)N(C)[C@@H](Cc3cccnc3)C(=O)N[C@@H]([C@@H](C)CC)C(=O)N(C)CC(=O)N(C)[C@H]3CCCCCN(C3=O)[C@@H](Cc3ccc(C(F)(F)F)cc3)C(=O)N(C)CC(=O)N[C@@H](CCc3cc(F)c(C(F)(F)F)c(F)c3)C(=O)N2C1` [PP0673], the “NRAS /KRAS” value in test [1] was “B (a compound having 3 or more and less than 10 is denoted as B)”. Further, the “HRAS /KRAS” value on HRAS wild-type protein is “B (a compound having 3 or more and less than 10 is denoted as B)”. Moreover, in test [2], the IC50 is 52.5 nM.
For `CCO[C@@H]1C[C@H]2C(=O)NC3(CCC3)C(=O)N(C)[C@@H](C3CCCC3)C(=O)N(C)[C@H](C(=O)N(C)C)CC(=O)N(C)[C@@H](COC)C(=O)N[C@@H]([C@@H](C)CC)C(=O)N(C)CC(=O)N(C)[C@H]3CCCCCN(C3=O)[C@@H](Cc3ccc(C(F)(F)F)cc3)C(=O)N(C)CC(=O)N[C@@H](CCc3cc(F)c(C(F)(F)F)c(F)c3)C(=O)N2C1` [PP0674], the “NRAS /KRAS” value in test [1] was “B (a compound having 3 or more and less than 10 is denoted as B)”. For the same molecule, on HRAS wild-type protein, the “HRAS /KRAS” value is “B (a compound having 3 or more and less than 10 is denoted as B)”. Further, the IC50 in test [2] is 13.9 nM.
Turning to `CCO[C@@H]1C[C@H]2C(=O)NC3(CCC3)C(=O)N(C)[C@@H](C3CCCC3)C(=O)N(C)[C@H](C(=O)N3CCOCC3)CC(=O)N(C)[C@@H](CC)C(=O)N[C@@H]([C@@H](C)CC)C(=O)N(C)CC(=O)N(C)[C@H]3CCCCCN(C3=O)[C@@H](Cc3ccc(C(F)(F)F)cc3)C(=O)N(C)CC(=O)N[C@@H](CCc3cc(F)c(C(F)(F)F)c(F)c3)C(=O)N2C1` [PP0678], in test [1], the “NRAS /KRAS” value is “B (a compound having 3 or more and less than 10 is denoted as B)”. The “HRAS /KRAS” value on HRAS wild-type protein was “B (a compound having 3 or more and less than 10 is denoted as B)”. The molecule further gave an IC50 in test [2] of 35.6 nM.
Take `CCC[C@H]1C(=O)N[C@@H]([C@@H](C)CC)C(=O)N(C)CC(=O)N(C)[C@H]2CCCCCN(C2=O)[C@@H](Cc2ccc(C(F)(F)F)cc2)C(=O)N(C)CC(=O)N[C@@H](CCc2cc(F)c(C(F)(F)F)c(F)c2)C(=O)N2C[C@H](OCC)C[C@H]2C(=O)NC2(CCC2)C(=O)N(C)[C@@H](C2CCCC2)C(=O)N(C)[C@H](C(=O)N2CCOCC2)CC(=O)N1C` [PP0679]: the “NRAS /KRAS” value in test [1] was “B (a compound having 3 or more and less than 10 is denoted as B)”. The “HRAS /KRAS” value on HRAS wild-type protein was “B (a compound having 3 or more and less than 10 is denoted as B)”. The molecule further showed an IC50 in test [2] of 40.2 nM.
`C#CC[C@H]1C(=O)N[C@@H]([C@@H](C)CC)C(=O)N(C)CC(=O)N(C)[C@H]2CCCCCN(C2=O)[C@@H](Cc2ccc(C(F)(F)F)cc2)C(=O)N(C)CC(=O)N[C@@H](CCc2cc(F)c(C(F)(F)F)c(F)c2)C(=O)N2C[C@H](OCC)C[C@H]2C(=O)NC2(CCC2)C(=O)N(C)[C@@H](C2CCCC2)C(=O)N(C)[C@H](C(=O)N2CCOCC2)CC(=O)N1C` [PP0681]: the “NRAS /KRAS” value in test [1] is “B (a compound having 3 or more and less than 10 is denoted as B)”. Moreover, the “HRAS /KRAS” value on HRAS wild-type protein was “B (a compound having 3 or more and less than 10 is denoted as B)”. In test [2], this molecule gave an IC50 of 24.2 nM.
`CCO[C@@H]1C[C@H]2C(=O)NC3(CCC3)C(=O)N(C)[C@@H](C3CCCC3)C(=O)N(C)[C@H](C(=O)N3CCOCC3)CC(=O)N(C)[C@@H](COC)C(=O)N[C@@H]([C@@H](C)CC)C(=O)N(C)CC(=O)N(C)[C@H]3CCCCCN(C3=O)[C@@H](Cc3ccc(C(F)(F)F)cc3)C(=O)N(C)CC(=O)N[C@@H](CCc3cc(F)c(C(F)(F)F)c(F)c3)C(=O)N2C1` [PP0689]: the “NRAS /KRAS” value in test [1] is “B (a compound having 3 or more and less than 10 is denoted as B)”. Moreover, at HRAS wild-type protein, the “HRAS /KRAS” value is “B (a compound having 3 or more and less than 10 is denoted as B)”. In test [2], this molecule had an IC50 of 34.4 nM.
Regarding `CCO[C@@H]1C[C@H]2C(=O)NC3(CCC3)C(=O)N(C)[C@@H](C3CCCC3)C(=O)N(C)[C@H](C(=O)N3CCOCC3)CC(=O)N(C)[C@@H](CCOC)C(=O)N[C@@H]([C@@H](C)CC)C(=O)N(C)CC(=O)N(C)[C@H]3CCCCCN(C3=O)[C@@H](Cc3ccc(C(F)(F)F)cc3)C(=O)N(C)CC(=O)N[C@@H](CCc3cc(F)c(C(F)(F)F)c(F)c3)C(=O)N2C1` [PP0690], the “NRAS /KRAS” value in test [1] was “B (a compound having 3 or more and less than 10 is denoted as B)”. Further, at HRAS wild-type protein, the “HRAS /KRAS” value was “B (a compound having 3 or more and less than 10 is denoted as B)”. Half-maximal inhibition in test [2] (IC50) required 60.7 nM.
Consider `CCO[C@@H]1C[C@H]2C(=O)NC3(CCC3)C(=O)N(C)[C@@H](C3CCCC3)C(=O)N(C)[C@H](C(=O)N(C)C)CC(=O)N(C)[C@@H](CC)C(=O)N[C@@H]([C@@H](C)CC)C(=O)N(C)CC(=O)N(C)[C@H]3CCCCN(C3=O)[C@@H](Cc3ccc(C(F)(F)F)cc3)C(=O)N(C)CC(=O)N[C@@H](CCc3cc(F)c(C(F)(F)F)c(F)c3)C(=O)N2C1` [PP0693], for which the “NRAS /KRAS” value in test [1] was “C (A compound having a KD ratio of 0.1 or more and less than 3 is denoted as C)”. Also, at HRAS wild-type protein, the “HRAS /KRAS” value was “C (A compound having a KD ratio of 0.1 or more and less than 3 is denoted as C)”. For the same molecule, the IC50 in test [2] was found to be 3.8 nM.

Broadly, the IC50 is the concentration that gives 50% inhibition. The low end stands for inhibition by little substance, the high end for a need for much substance.

The values are drawn from patent EP4603105A1, “PHARMACEUTICAL COMPOSITION CONTAINING CYCLIC COMPOUND HAVING SELECTIVE KRAS INHIBITORY EFFECT AGAINST HRAS AND NRAS” (CHUGAI SEIYAKU KABUSHIKI KAISHA, priority 2022, dated 2024).
